US4347319A, “Microbiological epoxidation process” (priority 1980, dated 1982)

Assays:
[1] = tested on: cell extract of Hansenula polymorpha ATCC 26,012; experiment: Oxidation of secondary alcohols to methylketone by cell extracts of yeasts; assay type: biochemical; conditions: methanol-grown; cell extract + NAD^+; sec. alcohol to methyl ketone; gas chromatography
[2] = tested on: cell extract of Torulopsis sp. strain A1 NRRL-Y-11,419; experiment: as above; assay type: biochemical; conditions: methanol-grown; cell extract + NAD^+; sec. alcohol to methyl ketone; gas chromatography
[3] = tested on: Torulopsis sp. Strain A1 (NRRLY-11,419); experiment: Oxidation of sec-alcohols to ketones by cell suspensions of yeasts; assay type: cell-based; conditions: sec-alcohol to methyl ketone
[4] = tested on: purified secondary alcohol dehydrogenase from Pichia sp. NRRL Y-11,328; experiment: Substrate specificity, electron acceptor and stoichiometry of purified yeast SADH; assay type: biochemical; conditions: examined spectrophotometrically
[5] = tested on: Methylococcus capsulatus CRL M1 NRRL B-11,219; experiment: Sec. alcohol oxidation by cell suspensions of methanol-grown cells; assay type: cell-based; conditions: sec. alcohol to methyl ketone
Text: (§1) In this example, the procedure of Example 1 was repeated except that a plurality of the methane-utilizing methylotrophic microorganisms of the invention were each aerobically grown in a methanol-containing nutrient medium instead of a methane-containing medium. The nutrients in the medium were the same as indicated in Example 1 except that 0.4% v/v methanol was used as the alcohol dehydrogenase enzyme inducer and major source of carbon and energy for growth. Following growth the cells were harvested and washed as described in Example 1. The resting cells of the induced methanol-grown methylotrophic microorganisms were then contacted with a […] under aerobic conditions in a buffered solution by the procedure described in Example 1.

[6] = tested on: Methylobacter chroococcum CRL M6 NRRL B-11,214; experiment: as above; assay type: cell-based; conditions: sec. alcohol to methyl ketone
Text: as §1

[7] = tested on: Methylobacter vinelandii CRL M5Y NRRL B-11,218; experiment: as above; assay type: cell-based; conditions: sec. alcohol to methyl ketone
Text: as §1

[8] = tested on: Methylocystis parvus CRL 18 NRRL B-11,204; experiment: as above; assay type: cell-based; conditions: sec. alcohol to methyl ketone
Text: as §1

[9] = tested on: Methylobacterium organophilum CRL 26 NRRL B-11,222; experiment: as above; assay type: cell-based; conditions: sec. alcohol to methyl ketone
Text: as §1

[10] = tested on: Methylosinus trichosporium CRL 15 NRRL B-11,202; experiment: as above; assay type: cell-based; conditions: sec. alcohol to methyl ketone
Text: as §1

[11] = tested on: Methylomonas methanica CRL M4P NRRL B-11,205; experiment: as above; assay type: cell-based; conditions: sec. alcohol to methyl ketone
Text: as §1

[12] = tested on: cell extract of Kloeckera sp. strain A2 NRRL-Y-11,420; experiment: Oxidation of secondary alcohols to methylketone by cell extracts of yeasts; assay type: biochemical; conditions: methanol-grown; cell extract + NAD^+; sec. alcohol to methyl ketone; gas chromatography
[13] = tested on: cell extract of Pichia sp. NRRL-Y-11,328; experiment: as above; assay type: biochemical; conditions: methanol-grown; cell extract + NAD^+; sec. alcohol to methyl ketone; gas chromatography
[14] = tested on: Hansenula polymorpha ATCC 26012; experiment: Oxidation of sec-alcohols to ketones by cell suspensions of yeasts; assay type: cell-based; conditions: sec-alcohol to methyl ketone
[15] = tested on: Kloeckera sp. Strain A2 (NRRLY-11,420); experiment: as above; assay type: cell-based; conditions: sec-alcohol to methyl ketone
Pichia sp. NRRL-Y-11328 = experiment: as above; assay type: cell-based; conditions: sec-alcohol to methyl ketone
[16] = tested on: cell extract of Candida utilis ATCC 26,387; experiment: Oxidation of secondary alcohols to methylketone by cell extracts of yeasts; assay type: biochemical; conditions: methanol-grown; cell extract + NAD^+; sec. alcohol to methyl ketone; gas chromatography
[17] = tested on: Candida utilis ATCC 26387; experiment: Oxidation of sec-alcohols to ketones by cell suspensions of yeasts; assay type: cell-based; conditions: sec-alcohol to methyl ketone
[18] = tested on: Methylocystis parvus (CRL 18 PM4) NRRL B-11,204; experiment: Oxidation by washed cell suspensions of methane-grown cells; assay type: cell-based; conditions: methane-grown cells; product 2-butanone
Description: The pH of the nutrient medium was adjusted to 7.0 by the addition of acid or base and 50 ml samples of the nutrient medium were charged into a plurality of 300 ml shaker flasks. The shaker flasks were inoculated with an inoculating loop of cells from an agar plate containing homogeneous colonies of the microorganisms on the plate (the purity of the isolates was confirmed by microscopic examination. The isolates had been maintained on agar plates under an atmosphere of methane and air having a 1:1 v/v gas ratio which had been transferred evey two weeks. The gaseous phase of the inoculated flasks was then replaced with a gas mixture comprised of methane and air having a ratio of 1:1 on a v/v basis. The inoculated flasks were sealed air tight and were incubated on a rotary shaker of orbital radius 2.5 cm at 250 rpm and at 30° C. for two days until turbidity in the medium had developed.
The cells were harvested by centrifugation at 10,000×g. at 4° C. for 30 minutes. The cell pellet was washed twice with a 0.15 M phosphate buffer at a pH of 7.0 (containing 0.002 M MgCl2). The washed cells were then suspended in a 0.15 M phosphate buffer at pH 7.0.
A 0.5 ml sample of each washed cell suspension (2 mg cells) was put into 10 ml vials at 4° C. which were sealed with a rubber cap. The gaseous phase of the vials was removed with vacuum and then was replaced with a gas mixture of the oxidative substrate (e.g., methane) and oxygen at a 1:1 v/v ratio. The vials were then incubated at 30 ° C. on a rotary shaker at 300 rpm. Samples of product (3 μl) were withdrawn periodically with a microsyringe and the products were analyzed by gas chromatography (ionization flame detector column).
The newly discovered and isolated microorganism strains of the present invention were each grown aerobically in the presence of methane in the manner described above. The methane-grown microbial cells were then washed, recovered and put to use in oxidizing an oxidative substrate by the procedure described above except in the case of a liquid substrate 10 μl of the substrate were used.

CCCC(C)O (stereo not drawn) [2-Pentanol]
Conversion Rate [1]: 1.0 μmoles/hr/mg Protein | Conversion Rate [2]: 1.0 μmoles/hr/mg Protein | Conversion Rate ([3]; growth substrate Ethanol): 1.2 μmoles/hr/mg of protein | Conversion Rate ([3]; growth substrate Methanol): 1.0 μmoles/hr/mg of protein | Conversion Rate ([3]; growth substrate Methylamine): 0.9 μmoles/hr/mg of protein | Conversion Rate ([3]; growth substrate Methylformate): 1.1 μmoles/hr/mg of protein | Conversion Rate ([3]; growth substrate Propylamine): 0.62 μmoles/hr/mg of protein | oxidation by the purified enzyme [4]: catalyzed the oxidation | Conversion Rates [5]: 0.24 μmoles/hr/mg protein | Conversion Rates [6]: 0.08 μmoles/hr/mg protein | Conversion Rates [7]: 0.05 μmoles/hr/mg protein | Conversion Rates [8]: 0.07 μmoles/hr/mg protein | Conversion Rates [9]: 1.0 μmoles/hr/mg protein | Conversion Rates [10]: 0.09 μmoles/hr/mg protein | Conversion Rates [11]: 0.05 μmoles/hr/mg protein | Conversion Rate [12]: 1.2 μmoles/hr/mg Protein | Conversion Rate [13]: 1.2 μmoles/hr/mg Protein | Conversion Rate ([14]; growth substrate Ethanol): 1.1 μmoles/hr/mg of protein | Conversion Rate ([14]; growth substrate Methanol): 1.4 μmoles/hr/mg of protein | Conversion Rate ([14]; growth substrate Methylamine): 1.2 μmoles/hr/mg of protein | Conversion Rate ([14]; growth substrate Methylformate): 1.3 μmoles/hr/mg of protein | Conversion Rate ([14]; growth substrate Propylamine): 0.82 μmoles/hr/mg of protein | Conversion Rate ([15]; growth substrate Ethanol): 1.0 μmoles/hr/mg of protein | Conversion Rate ([15]; growth substrate Methanol): 1.2 μmoles/hr/mg of protein | Conversion Rate ([15]; growth substrate Methylamine): 1.0 μmoles/hr/mg of protein | Conversion Rate ([15]; growth substrate Methylformate): 1.2 μmoles/hr/mg of protein | Conversion Rate ([15]; growth substrate Propylamine): 0.92 μmoles/hr/mg of protein | Conversion Rate (Pichia sp. NRRL-Y-11328; growth substrate Ethanol): 1.0 μmoles/hr/mg of protein | Conversion Rate (Pichia sp. NRRL-Y-11328; growth substrate Methanol): 1.2 μmoles/hr/mg of protein | Conversion Rate (Pichia sp. NRRL-Y-11328; growth substrate Methylamine): 0.72 μmoles/hr/mg of protein | Conversion Rate (Pichia sp. NRRL-Y-11328; growth substrate Methylformate): 0.98 μmoles/hr/mg of protein | Conversion Rate (Pichia sp. NRRL-Y-11328; growth substrate Propylamine): 0.60 μmoles/hr/mg of protein | Conversion Rate [16]: 0.82 μmoles/hr/mg Protein | Conversion Rate ([17]; growth substrate Ethanol): 1.0 μmoles/hr/mg of protein | Conversion Rate ([17]; growth substrate Methanol): 1.5 μmoles/hr/mg of protein | Conversion Rate ([17]; growth substrate Methylamine): 1.2 μmoles/hr/mg of protein | Conversion Rate ([17]; growth substrate Methylformate): 1.3 μmoles/hr/mg of protein | Conversion Rate ([17]; growth substrate Propylamine): 0.9 μmoles/hr/mg of protein

CCC(C)=O [Butanone]
Conversion Rate to Ketone [18]: 1.0 μmoles/hr/mg Protein
